What was measured:
Settings in all cases: human; call rule not given here
[1] = system: Hepatotoxicity; test: FDA HLAED, alkaline phosphatase increase
[2] = system: Hepatotoxicity; test: FDA HLAED, serum glutamic oxaloacetic transaminase (SGOT) increase
[3] = system: Hepatotoxicity; test: FDA HLAED, liver enzyme composite activity
[4] = system: Hepatotoxicity; test: FDA HLAED, serum glutamic pyruvic transaminase (SGPT) increase
[5] = system: Hepatotoxicity; test: FDA HLAED, gamma-glutamyl transferase (GGT) increase
[6] = system: Hepatotoxicity; test: FDA HLAED, lactate dehydrogenase (LDH) increase
Throughout, for GGT Increase - Index Value: reference of the scale not given here.
Throughout, for LDH Increase - Index Value: reference of the scale not given here.

| SMILES | Alkaline Phosphatase Increase - Activity Score [1] | Alkaline Phosphatase Increase - Index Value [1] | Alkaline Phosphatase Increase - Number of Reports [1] | SGOT Increase - Activity Score [2] | SGOT Increase - Index Value [2] | SGOT Increase - Number of Reports [2] | Composite Activity - Active [3] | Composite Activity - Marginal [3] | Composite Activity - Score [3] | SGPT Increase - Activity Score [4] | SGPT Increase - Index Value [4] | SGPT Increase - Number of Reports [4] | GGT Increase - Activity Score [5] | GGT Increase - Index Value [5] | GGT Increase - Number of Reports [5] | LDH Increase - Activity Score [6] | LDH Increase - Index Value [6] | LDH Increase - Number of Reports [6] | further results |
| --- | --- | --- | --- | --- | --- | --- | --- | --- | --- | --- | --- | --- | --- | --- | --- | --- | --- | --- | --- |
| C[C@H]1C[C@H]2[C@@H]3CCC4=CC(=O)C=C[C@]4(C)[C@@]3(Cl)[C@@H](O)C[C@]2(C)[C@@]1(O)C(=O)CO [BECLOMETHASONE] | Inactive | 0 | < 4 | Inactive | 0 | < 4 | 0 | 0 | Inactive | Inactive | 0 | < 4 | Inactive | 0 | < 4 | Inactive | 0 | < 4 | – |
| CCOC(=O)[C@H](CCc1ccccc1)N[C@H]1CCc2ccccc2N(CC(=O)O)C1=O [BENAZEPRIL] | Inactive | 0.3 | < 4 | Inactive | 0 | < 4 | 0 | 0 | Inactive | Inactive | 0 | < 4 | Inactive | 0.2 | < 4 | Inactive | 0.2 | < 4 | – |
| CC(C)COCC(CN(Cc1ccccc1)c1ccccc1)N1CCCC1 (configuration not stated) [BEPRIDIL] | Inactive | 0 | < 4 | Inactive | 0 | < 4 | 0 | 0 | Inactive | Inactive | 0 | < 4 | Inactive | 0 | < 4 | Inactive | 27.1 | < 4 | – |
| CC(C)NCC(O)COc1ccc(CCOCC2CC2)cc1 (configuration not stated) [BETAXOLOL] | Inactive | 0 | < 4 | Inactive | 0 | < 4 | – | – | – | Inactive | 0 | < 4 | Inactive | 0 | < 4 | Inactive | 0 | < 4 | Composite Activity - Active ([3]; Liver): 0; Composite Activity - Marginal ([3]; Liver): 0; Composite Activity - Score ([3]; Liver): Inactive |
| CC(O)(CS(=O)(=O)c1ccc(F)cc1)C(=O)Nc1ccc(C#N)c(C(F)(F)F)c1 (configuration not stated) [BICALUTAMIDE] | Active | 8.5 | >= 4 | Active | 13.6 | >= 4 | 3 | 0 | Active | Active | 11.9 | >= 4 | Inactive | 1.7 | < 4 | Inactive | 5.1 | < 4 | – |
| CC(C)NCC(O)COc1ccc(COCCOC(C)C)cc1 (configuration not stated) [BISOPROLOL] | Inactive | 3.1 | < 4 | Inactive | 0 | < 4 | 1 | 0 | Inactive | Inactive | 3.1 | < 4 | Active | 12.3 | < 4 | Inactive | 0 | < 4 | – |
| Cc1ccc(C(=O)Oc2ccc(C(O)CNC(C)(C)C)cc2OC(=O)c2ccc(C)cc2)cc1 (configuration not stated) [BITOLTEROL] | Inactive | 0 | < 4 | Inactive | 0 | < 4 | 0 | 0 | Inactive | Inactive | 0 | < 4 | Inactive | 0 | < 4 | Inactive | 0 | < 4 | – |
| CC[N+](C)(C)Cc1ccccc1Br.Cc1ccc(S(=O)(=O)[O-])cc1 [BRETYLIUM TOSYLATE] | Inactive | 0 | < 4 | Inactive | 0 | < 4 | 0 | 0 | Inactive | Inactive | 0 | < 4 | Inactive | 0 | < 4 | Inactive | 0 | < 4 | – |
| Brc1c(NC2=NCCN2)ccc2nccnc12 [BRIMONIDINE] | Inactive | 0 | < 4 | Inactive | 1.1 | < 4 | – | – | – | Inactive | 0 | < 4 | Inactive | 0 | < 4 | Inactive | 0 | < 4 | Composite Activity - Active ([3]; Liver): 0; Composite Activity - Marginal ([3]; Liver): 0; Composite Activity - Score ([3]; Liver): Inactive |
